Here are results for twelve molecules from ChEMBL document CHEMBL3632556, “Synthesis and biological evaluation of new C-10 substituted dithranol pleiotropic hybrids” (Bioorg Med Chem, 2015).

The structures appear in SMILES notation.

Series [1] in a line: Antioxidant activity assessed as inhibition of AAPH-induced linoleic acid lipid peroxidation at 100 uM. Format: physicochemical.
Series [2] is described as follows: Antioxidant activity assessed as increase of DPPH free radical scavenging activity by measuring reducing activity at 100 uM after 60 mins by spectrophotometry. Format: physicochemical. The conditions noted are these: 1 h.
Series [3] can be described thus: Antioxidant activity assessed as DPPH free radical scavenging activity by measuring reducing activity at 100 uM after 20 mins by spectrophotometry. It is filed as physicochemical. Also noted: scale not given: the % may be the effect or the level left.
Series [4] can be described thus: Inhibition of soybean LOX assessed as reduction in conversion of sodium linoleate to 13-hydroperoxylinoleic acid by UV analysis. Also noted: species or system Glycine max.
Series [5] deals with Rattus norvegicus. Put plainly: Anti-inflammatory activity in Fisher 344 rat assessed as inhibition of carrageenan-induced paw edema at 0.01 mmol/kg, ip after 3.5 hrs. It is filed as functional. The settings on record: Fisher 344, ip. A general note: The carrageenan paw model is a standard test of acute inflammation.
Series [6] deals with Rattus norvegicus. Briefly: Acute toxicity in Fisher 344 rat up to 0.1 mmol/kg, ip. The settings on record: in vivo. It is filed as organism-based.
Series [7] can be described thus: Cytotoxicity against human HaCaT cells assessed as cell survival at 0.01 uM after 48 hrs by MTT assay (reference value: 100%). Format: cell-based. The settings on record: read-out: Survival. (In general: Tetrazolium dyes change colour on reduction, which living cells bring about.)
A short description of series [8]: Cytotoxicity against human HaCaT cells assessed as cell survival at 0.1 uM after 48 hrs by MTT assay (reference value: 96.75 +/- 1.77%). It is filed as cell-based. The conditions noted are these: read-out: Survival.
Series [9] is described as follows: Cytotoxicity against human HaCaT cells assessed as cell survival at 1 uM after 48 hrs by MTT assay (reference value: 97.50 +/- 0.71%). Format: cell-based. The conditions noted are these: read-out: Survival.
Series [10] is described as follows: Cytotoxicity against human HaCaT cells assessed as cell survival at 10 uM after 48 hrs by MTT assay (reference value: 95.75 +/- 2.47%). Format: cell-based. The conditions noted are these: read-out: Survival.
Series [11] can be described thus: Cytotoxicity against human HaCaT cells assessed as cell survival at 100 uM after 48 hrs by MTT assay (reference value: 88.07 +/- 9.81%). The settings on record: read-out: Survival. Format: cell-based.
Series [12] deals with HaCaT. Briefly: Antiproliferative activity against human HaCaT cells after 24 hrs by MTT assay. Format: functional, cell-based.

`Cc1c(C)c2c(c(C)c1O)CCC(C)(C(=O)O)O2` (centres undefined) [TROLOX]: the “inhibition (INH)” value in series [1] was 63%.

With `NCCc1ccc(O)c(O)c1` [DOPAMINE], the Activity entry in series [2] is listed as “Not Active”; in [3], 86%. For the same molecule, the “inhibition (INH)” value in [1] came to 43%. Moreover, in [4] (read-out: IC50), the IC50 (usually the point on the concentration scale where inhibition reaches its midpoint) was determined as 100 µM. The inhibition in vivo (in general, the change of the read-out against control, counted positive when it falls) at 10 µmol/kg in series [5] was 13%.

For the molecule `COc1ccc(C(NC(C)=O)c2ccc(OC)cc2)cc1`, the Activity result is given as “Not Active” in [2], “Not Active” in series [3] and “Non-toxic” in [6]. In addition, the “inhibition (INH)” value in series [1] amounted to 94%. The IC50 in series [4] (read-out: IC50) stood at 100 µM. Further, in [5], the inhibition in vivo at 10 µmol/kg was found to be 45%.

For `COc1ccc(CNC(=O)CC2c3cccc(O)c3C(=O)c3c(O)cccc32)cc1OC`, the Activity result in series [2] is reported as “Not Active”; in series [3], 61%; in [6] it was “Non-toxic”. The “inhibition (INH)” value in [1] came to 65%. For the same molecule, the IC50 in series [4] (read-out: IC50) was found to be 61.5 µM. Further, in series [7], the viability at 48 h, 0.01 µM worked out at 18.5%. Also, the viability at 48 h, 0.1 µM in series [8] turned out to be 13.3%. For the same molecule, the viability at 48 h, 1 µM in series [9] stood at 12.3%. Further, the viability at 48 h, 10 µM in series [10] was 3%. In addition, in series [11], the viability at 48 h, 100 µM amounted to 0%.

In the case of `CC(C)(C)OC(=O)NCCCN(CCCCN(CCCNC(=O)CC1c2cccc(O)c2C(=O)c2c(O)cccc21)C(=O)OC(C)(C)C)C(=O)OC(C)(C)C`, the Activity result in [2] was “Not Active”; in series [3], 29%; in series [6], “Non-toxic”. Besides, the “inhibition (INH)” value in series [1] was found to be 93%. In addition, in [4], the IC50 entry was “Not Active”.

On to `CC(C)(C)OC(=O)CC1c2cccc(O)c2C(=O)c2c(O)cccc21`, for which the results for the Activity result in series [2], in series [3] and in [6] were “Active”, 9% and “Non-toxic”, respectively. The “inhibition (INH)” value in series [1] is 79%. In addition, the IC50 entry in series [4] is “Not Active”.

As to `COc1ccc2c(c1)c(CC(=O)O)c(C)n2C(=O)c1ccc(Cl)cc1` [INDOMETHACIN], the inhibition in vivo at 10 µmol/kg in [5] was 47%.

`NCCCCNCCCN` [SPERMIDINE]: the Activity result in [2] and in series [3] was “Not Active” each time. The “inhibition (INH)” value in [1] is “Not Active”. Moreover, the 50% inhibitory concentration (IC50) result in series [4] is on record as “Not Active”.

Regarding `NCCCNCCCCNCCCNC(=O)CC1c2cccc(O)c2C(=O)c2c(O)cccc21.O=C(O)C(F)(F)F.O=C(O)C(F)(F)F.O=C(O)C(F)(F)F`, the figures for the Activity result in [2], in [3] and in [6] were “Not Active”, 93% and “Non-toxic”, respectively. Moreover, the “inhibition (INH)” value in [1] is 87%. For the same molecule, the IC50 entry in [4] is on record as “Not Active”.

Regarding `COc1ccc(CNC(=O)CC2c3cccc(O)c3C(=O)c3c(O)cccc32)c(OC)c1`, the figures for the Activity result in [2], in series [3] and in [6] were “Not Active”, 87% and “Non-toxic”, respectively. For the same molecule, the “inhibition (INH)” value in series [1] was found to be 81%. Moreover, the IC50 in series [4] (read-out: IC50) is 50 µM; in [12], 10 µM. In addition, in [7], the viability at 48 h, 0.01 µM stood at 92.3%. In series [8], the viability at 48 h, 0.1 µM amounted to 134%. In addition, the viability at 48 h, 1 µM in [9] came out at 135%. Further, the viability at 48 h, 10 µM in series [10] worked out at 8.42%. Further, the viability at 48 h, 100 µM in series [11] is 0.05%.

On to `NCCCNCCCCNCCCN` [SPERMINE], for which the Activity result in [2] is given as “Not Active”; in [3] it was 4%. Moreover, in series [1], the “inhibition (INH)” value is recorded as “Not Active”. Besides, in series [4], the IC50 result is “Not Active”.

Consider `CC(Cc1ccc(O)c(O)c1)C(C)Cc1ccc(O)c(O)c1` (centres undefined) [NORDIHYDROGUAIARETIC ACID], for which the figures for the Activity entry in series [2] and in [3] were “Not Active” and 81%, respectively.
